Measurements published in patent publication US20130095059A1, “INHALED NO DONOR KMUPS DERIVATIVE PREVENTING ALLERGIC PULMONARY VASCULAR AND BRONCHIAL INFLAMMATION VIA SUPPRESSED CYTOKINES, INOS AND INFLAMMATORY CELL COUNTS IN ASTHMA MODEL” (priority 2007, published 2013).

Columns and labels:
[1] = MCT-induced chronic PAH, mean pulmonary arterial pressure; type: in vivo, Wistar rats; conditions: 5 mg/kg/day p.o. and 1 mg/kg/day i.p. for 21 days
Procedure: The experiments were performed in adult male Wistar rats (300 to 350 g) in accordance with institutional guidelines after approval by the ethical review committee. PAH development and pulmonary expression of 5-HTT were examined in rats after 60 mg/kg single injection (i.p.) of monocrotaline (MCT). To assess the potential preventive effect of KMUP-1 on MCT-induced PAH and associated proliferation, we assigned rats at random to 2 groups of 8 animals which received KMUP-1 at 5 mg/kg/day p.o or 1 mg/kg/day i.p. All treatments were given once a day for 3 weeks after a single MCT injection (60 mg/kg i.p.) (Abe et al., 2004). On day 21, rats were anesthetized and pulmonary artery blood pressure (MPAP) was recorded as previously described. Lung tissues were dissected for Western blotting and immunohistochemistry.

PASMCs = test: Cell migration (wound) assay of PASMCs; type: cell-based, Wistar rats; conditions: 10-100 μM; 5-HT 10 μM 24 h
Procedure: Migration of PASMCs was assessed using a wound assay model in which cells grown to confluence on 6 well dishes were scraped with the edge of a fine razor. The wound edge was viewed and photographed under a microscope (Nikon, Tokyo, Japan) before and after culture for 24 h in serum-free DMEM in the presence of 5HT (10 μM). The distance the cells migrated from the wound surface was then manually measured.

Structure (SMILES): Cn1c(=O)c2c(ncn2CCN2CCN(c3ccccc3Cl)CC2)n(C)c1=O [KMUP-1, 7-[2-[4-(2-chlorophenyl)piperazinyl]ethyl]-1,3-dimethylxanthine]
- MCT-induced increases in mean pulmonary arterial pressure (MPAP) [1]: significantly reduced
- 5-HT-induced PASMCs migration (PASMCs): concentration-dependently suppressed
